Data as given in ChEMBL document CHEMBL1153306, “Relation between lipophilicity of alkyl gallates and antifungal activity against yeasts and filamentous fungi” (Bioorg Med Chem Lett, 2009).
Converted amounts (≈) assume the structure as drawn.

Tests used:
Cryptococcus neoformans = test: Antifungal activity against Cryptococcus neoformans after 48 hrs by broth microdilution technique; assay type: functional
Saccharomyces cerevisiae = test: Antifungal activity against Saccharomyces cerevisiae after 48 hrs by broth microdilution technique; assay type: functional
Epidermophyton floccosum = test: Antimicrobial activity against Epidermophyton floccosum after 48 hrs by broth microdilution technique; assay type: functional
Nannizzia gypsea = test: Antimicrobial activity against Microsporum gypseum after 48 hrs by broth microdilution technique; assay type: functional
[1] = tested on: Trichophyton mentagrophytes; test: Antimicrobial activity against Trichophyton mentagrophytes after 48 hrs by broth microdilution technique; assay type: functional
Candida albicans = test: Antifungal activity against Candida albicans after 48 hrs by broth microdilution technique; assay type: functional
Trichophyton rubrum = test: Antimicrobial activity against Trichophyton rubrum after 48 hrs by broth microdilution technique; assay type: functional
Aspergillus fumigatus = test: Antimicrobial activity against Aspergillus fumigatus after 48 hrs by broth microdilution technique; assay type: functional
Aspergillus flavus = test: Antimicrobial activity against Aspergillus flavus after 48 hrs by broth microdilution technique; assay type: functional
Aspergillus niger = test: Antimicrobial activity against Aspergillus niger after 48 hrs by broth microdilution technique; assay type: functional
Candida tropicalis = test: Antifungal activity against Candida tropicalis after 48 hrs by broth microdilution technique; assay type: functional
[2] = Lipophilicity, log P of the compound; assay type: physicochemical; conditions: octanol/water

SMILES	MIC (Cryptococcus neoformans) [µg/mL]	MIC (Saccharomyces cerevisiae) [µg/mL]	MIC (Epidermophyton floccosum) [µg/mL]	MIC (Nannizzia gypsea) [µg/mL]	MIC [1] [µg/mL]	MIC (Candida albicans) [µg/mL]	MIC (Trichophyton rubrum) [µg/mL]	MIC (Aspergillus fumigatus) [µg/mL]	MIC (Aspergillus flavus) [µg/mL]	MIC (Aspergillus niger) [µg/mL]	MIC (Candida tropicalis) [µg/mL]	logP [2]
CCCCCCCCOC(=O)c1cc(O)c(O)c(O)c1 [OCTYL_GALLATE]	50 (≈ 177 µM)	50 (≈ 177 µM)	6.25 (≈ 22.1 µM)	6.25 (≈ 22.1 µM)	12.5 (≈ 44.3 µM)	62.5 (≈ 221 µM)	6.25 (≈ 22.1 µM)	62.5 (≈ 221 µM)	62.5 (≈ 221 µM)	62.5 (≈ 221 µM)	62.5 (≈ 221 µM)	3.7
CCOC(=O)c1cc(OC)c(OC)c(OC)c1 [ETHYLTRIMETHOXY BENZOATE]	> 250	> 250	> 250	> 250	> 250	> 250	> 250	> 250	> 250	> 250	> 250	
COC(=O)c1cc(O)c(O)c(O)c1 [GALLIC ACID METHYL ESTER]	> 250	> 250	100 (≈ 543 µM)	100 (≈ 543 µM)	100 (≈ 543 µM)	> 250	100 (≈ 543 µM)	> 250	> 250	> 250	> 250	
COc1cc(C(=O)O)cc(OC)c1OC [3,4,5-TRIMETHOXYBENZOIC ACID]	> 250	> 250	> 250	> 250	> 250	> 250	> 250	> 250	> 250	> 250	> 250	
CCCCCCCOC(=O)c1cc(O)c(O)c(O)c1 [HEPTYL GALLATE]	62.5 (≈ 233 µM)	100 (≈ 373 µM)	6.25 (≈ 23.3 µM)	6.25 (≈ 23.3 µM)	12.5 (≈ 46.6 µM)	100 (≈ 373 µM)	6.25 (≈ 23.3 µM)	100 (≈ 373 µM)	100 (≈ 373 µM)	100 (≈ 373 µM)	100 (≈ 373 µM)	
CCCCCCOC(=O)c1cc(O)c(O)c(O)c1 [HEXYL GALLATE]	> 250	> 250	25 (≈ 98.3 µM)	25 (≈ 98.3 µM)	25 (≈ 98.3 µM)	> 250	25 (≈ 98.3 µM)	> 250	> 250	> 250	> 250	
CCCCCCCCCCCCOC(=O)c1cc(O)c(O)c(O)c1 [DODECYL GALLATE]	> 250	> 250		100 (≈ 295 µM)	50 (≈ 148 µM)	> 250	50 (≈ 148 µM)	> 250	> 250	> 250	> 250	
CCCCCCCCCCCCCCCCOC(=O)c1cc(O)c(O)c(O)c1 [HEXADECYL GALLATE]	> 250	> 250		250 (≈ 634 µM)	125 (≈ 317 µM)	> 250	250 (≈ 634 µM)	> 250	> 250	> 250	> 250	
CC(=O)Oc1cc(C(=O)O)cc(OC(C)=O)c1OC(C)=O [3,4,5-TRIACETOXYBENZOIC ACID]	> 250	> 250	> 250	> 250	> 250	> 250	> 250	> 250	> 250	> 250	> 250	
CCCCCCCCCCOC(=O)c1cc(O)c(O)c(O)c1 [DECYL GALLATE]	50 (≈ 161 µM)	100 (≈ 322 µM)	25 (≈ 80.5 µM)	50 (≈ 161 µM)	50 (≈ 161 µM)	100 (≈ 322 µM)	12.5 (≈ 40.3 µM)	100 (≈ 322 µM)	> 250	> 250	100 (≈ 322 µM)	
O=C(O)c1cc(O)c(O)c(O)c1 [GALLIC ACID]	> 250	> 250	100 (≈ 588 µM)	> 250	125 (≈ 735 µM)	> 250	100 (≈ 588 µM)	> 250	> 250	> 250	> 250	
C[C@@H]1[C@H](O)[C@@H](C)/C=C/C=C/C=C/C=C/C=C/C=C/C=C/[C@H](O[C@@H]2O[C@H](C)[C@@H](O)[C@H](N)[C@@H]2O)C[C@@H]2O[C@](O)(C[C@@H](O)C[C@@H](O)[C@H](O)CC[C@@H](O)C[C@@H](O)CC(=O)O[C@H]1C)C[C@H](O)[C@H]2C(=O)O [AMPHOTERICIN B]	0.25 (≈ 0.271 µM)	0.5 (≈ 0.541 µM)				0.78 (≈ 0.844 µM)		0.5 (≈ 0.541 µM)	0.5 (≈ 0.541 µM)	0.5 (≈ 0.541 µM)	0.5 (≈ 0.541 µM)	
CCCCOC(=O)c1cc(O)c(O)c(O)c1 [BUTYL GALLATE]	> 250	> 250	100 (≈ 442 µM)	50 (≈ 221 µM)	100 (≈ 442 µM)	> 250	50 (≈ 221 µM)	> 250	> 250	> 250	> 250	
CCOC(=O)c1cc(O)c(O)c(O)c1 [ETHYLGALLATE]	> 250	> 250	100 (≈ 505 µM)	100 (≈ 505 µM)	100 (≈ 505 µM)	> 250	100 (≈ 505 µM)	> 250	> 250	> 250	> 250	
CC(=O)N1CCN(c2ccc(OCC3COC(Cn4ccnc4)(c4ccc(Cl)cc4Cl)O3)cc2)CC1 (configuration not stated) [KETOCONAZOLE]	0.39 (≈ 0.734 µM)	3.12 (≈ 5.87 µM)				1.56 (≈ 2.94 µM)		0.78 (≈ 1.47 µM)	0.78 (≈ 1.47 µM)	1.56 (≈ 2.94 µM)	0.125 (≈ 0.235 µM)	

Now from value to molecule, other results behind:

MIC (Cryptococcus neoformans) [µg/mL]	MIC (Saccharomyces cerevisiae) [µg/mL]	MIC (Epidermophyton floccosum) [µg/mL]	MIC (Nannizzia gypsea) [µg/mL]	MIC [1] [µg/mL]	MIC (Candida albicans) [µg/mL]	MIC (Trichophyton rubrum) [µg/mL]	MIC (Aspergillus fumigatus) [µg/mL]	MIC (Aspergillus flavus) [µg/mL]	MIC (Aspergillus niger) [µg/mL]	MIC (Candida tropicalis) [µg/mL]	SMILES	logP [2]
> 250	> 250	100 (≈ 471 µM)	75 (≈ 353 µM)	100 (≈ 471 µM)	> 250	50 (≈ 236 µM)	> 250	> 250	> 250	> 250	CCCOC(=O)c1cc(O)c(O)c(O)c1 [PROPYL GALLATE]	
8 (≈ 27 µM)	8 (≈ 27 µM)	25 (≈ 84.4 µM)	8 (≈ 27 µM)	8 (≈ 27 µM)	8 (≈ 27 µM)	8 (≈ 27 µM)	62.5 (≈ 211 µM)	62.5 (≈ 211 µM)	125 (≈ 422 µM)	8 (≈ 27 µM)	CCCCCCCCCOC(=O)c1cc(O)c(O)c(O)c1 [NONYL GALLATE]	3.7
		0.004 (≈ 0.0137 µM)	0.04 (≈ 0.137 µM)	0.04 (≈ 0.137 µM)		0.01 (≈ 0.0343 µM)					CN(C/C=C/C#CC(C)(C)C)Cc1cccc2ccccc12 [TERBINAFINE]	
100 (≈ 308 µM)	200 (≈ 616 µM)		125 (≈ 385 µM)	100 (≈ 308 µM)	250 (≈ 771 µM)	125 (≈ 385 µM)	> 250	> 250	> 250	200 (≈ 616 µM)	CCCCCCCCCCCOC(=O)c1cc(O)c(O)c(O)c1 [UNDECYL GALLATE]	
> 250	> 250	250 (≈ 592 µM)	> 250	> 250	> 250	250 (≈ 592 µM)	> 250	> 250	> 250	> 250	CCCCCCCCCCCCCCCCCCOC(=O)c1cc(O)c(O)c(O)c1 [OCTADECYL GALLATE]	
250 (≈ 682 µM)	> 250	> 250	100 (≈ 273 µM)	50 (≈ 136 µM)	> 250	50 (≈ 136 µM)	> 250	> 250	> 250	> 250	CCCCCCCCCCCCCCOC(=O)c1cc(O)c(O)c(O)c1 [TETRADECYL GALLATE]	
62.5 (≈ 496 µM)	100 (≈ 793 µM)	12.5 (≈ 99.1 µM)	50 (≈ 396 µM)	50 (≈ 396 µM)	100 (≈ 793 µM)	25 (≈ 198 µM)	100 (≈ 793 µM)	> 250	> 250	100 (≈ 793 µM)	Oc1cccc(O)c1O [PYROGALLOL]	
> 250	> 250	100 (≈ 416 µM)	50 (≈ 208 µM)	50 (≈ 208 µM)	> 250	50 (≈ 208 µM)	> 250	> 250	> 250	> 250	CCCCCOC(=O)c1cc(O)c(O)c(O)c1 [PENTYL GALLATE]	
